Measured values published in patent US20260364185A1, “Estrogen Receptor Modulator and Use Thereof” (JIANGSU VCARE PHARMATECH CO., LTD., priority 2023, published 2026).
pIC50: −log10 of the molar value.

system: MCF7 cells; assay: MCF7 cell activity test (CCK8 proliferation inhibition); type: cell-based; conditions: Homo sapiens, MCF7, 144 h, 6 days incubation
Procedure: Experimental Example 1: MCF7 cell activity test
Cell culture: MCF7 cells (culture conditions: MEM medium+20% FBS+1% essential amino acids++1 mg/100 ml insulin, 37° C., 5% CO2). Plating: The cells subcultured into the logarithmic growth phase were collected and transferred into a centrifuge tube, and centrifuged at 800 rpm for 5 min. The cells were resuspended in complete medium and counted. The cells were diluted and adjusted to a final concentration of 30,000 cells/mL. The cells were then seeded into a 96-well plate with 100 μL per well and incubated in an incubator overnight. Administration: Each group of drug solutions was added into the 96-well plate, 100 μL per well, n=3 for each drug concentration. Meanwhile, negative wells (n=6) and blank wells (n=3) were set up. The 96-well plate was incubated in the incubator for further 6 days. CCK8 reagent was added to the 96-well plate, 20 μL per well, and then the plate was placed in the incubator for further 4 h. The absorbance of the solution was measured at a wavelength of 450 nm using an enzyme reader. The proliferation inhibition rate was calculated and the half inhibitory concentration IC50 value was calculated using Graphpad Prism 6.0 software.

Row | pIC50 | Compound
1 | > 7.30 | C[C@H]1CC(c2cc3c(cc2F)c(N2CCC(=O)NC2=O)nn3C)CCN1C[C@@H]1CCCC[C@H]1CN1CCN(c2ccc([C@@H]3c4ccc(O)cc4CC[C@@H]3c3ccccc3)cc2)CC1 (some centres unmarked) [VI-21]
2 | > 7.60 | Cn1nc(N2CCC(=O)NC2=O)c2cc(F)c(C3CCN(C[C@@H]4CCCC[C@H]4CN4CCN(c5ccc([C@@H]6c7ccc(O)cc7CC[C@@H]6c6ccccc6)cc5)CC4)C4(CC4)C3)cc21 (some centres unmarked) [VI-18]
3 | > 7.00 | Cc1nc2cc(N3CCN(C[C@@H]4CCCC[C@H]4CN4CCN(c5ccc([C@@H]6c7ccc(O)cc7CC[C@@H]6c6ccccc6)cc5)CC4)CC3)ccc2n1C1CCC(=O)NC1=O (some centres unmarked) [Compound V-1]
4 | > 7.30 | O=C1CCC(n2cnc3cc(N4CCN(C[C@@H]5CCCC[C@H]5CN5CCN(c6ccc([C@@H]7c8ccc(O)cc8CC[C@@H]7c7ccccc7)cc6)CC5)CC4)ccc32)C(=O)N1 (some centres unmarked) [Compound V-3]
5 | > 7.60 | Cn1nc(N2CCC(=O)NC2=O)c2cc(F)c(N3CC4(CCN(C[C@@H]5CCCC[C@H]5CN5CCN(c6ccc([C@@H]7c8ccc(O)cc8CC[C@@H]7c7ccccc7)cc6)CC5)CC4)C3)cc21 [VI-27]
6 | > 7.60 | O=C1CCC(NC(=O)c2ccc(N3CCN(C[C@@H]4CCCC[C@H]4CN4CCN(c5ccc([C@@H]6c7ccc(O)cc7CC[C@@H]6c6ccccc6)cc5)CC4)CC3)cn2)C(=O)N1 (stereo partly drawn) [III-1, N-(2,6-dioxopiperidin-3-yl)-5-(4-(((1R,2R)-2-((4-(4-((1R,2S)-6-hydroxy-2-phenyl-1,2,3,4-tetrahydronaphthalen-1-yl)phenyl)piperazin-1-yl)methyl)cyclohexyl)methyl)piperazin-1-yl)pyridinecarboxamide]
7 | > 7.30 | Cc1nn(C2CCC(=O)NC2=O)c2ccc(C3CCN(C[C@@H]4CCCC[C@H]4CN4CCN(c5ccc([C@@H]6c7ccc(O)cc7CC[C@@H]6c6ccccc6)cc5)CC4)CC3)cc12 (some centres unmarked) [VI-8]
8 | > 7.00 | Cn1nc(C2CCC(=O)NC2=O)c2ccc(N3CCN(C[C@H]4CCCC[C@@H]4CN4CCN(c5ccc([C@@H]6c7ccc(O)cc7CC[C@@H]6c6ccccc6)cc5)CC4)CC3)cc21 (stereo partly drawn) [IV-4, 3-(6-(4-(((1S,2S)-2-((4-(4-((1R,2S)-6-hydroxy-2-phenyl-1,2,3,4-tetrahydronaphthalen-1-yl)phenyl)piperazin-1-yl)methyl)cyclohexyl)methyl)piperazin-1-yl)-1-methyl-1H-indazol-3-yl)piperidine-2,6-dione]
9 | > 7.00 | O=C1CCC(NC(=O)c2ccc(C3CCN(C[C@@H]4CCCC[C@H]4CN4CCN(c5ccc([C@@H]6c7ccc(O)cc7CC[C@@H]6c6ccccc6)cc5)CC4)CC3)cn2)C(=O)N1 (stereo partly drawn) [III-3, N-(2,6-dioxopiperidin-3-yl)-5-(1-(((1R,2R)-2-((4-(4-((1R,2S)-6-hydroxy-2-phenyl-1,2,3,4-tetrahydronaphthalen-1-yl)phenyl)piperazin-1-yl)methyl)cyclohexyl)methyl)piperidin-4-yl)pyridinecarboxamide]
10 | > 7.00 | Cc1nn(C2CCC(=O)NC2=O)c2cc(F)c(C3CCN(C[C@@H]4CCCC[C@H]4CN4CCN(c5ccc([C@@H]6c7ccc(O)cc7CC[C@@H]6c6ccccc6)cc5)CC4)CC3)cc12 (some centres unmarked) [VI-9]
11 | > 7.00 | O=C1CCC(n2cnc3cc(C4CCN(C[C@@H]5CCCC[C@H]5CN5CCN(c6ccc([C@@H]7c8ccc(O)cc8CC[C@@H]7c7ccccc7)cc6)CC5)CC4)ccc32)C(=O)N1 (some centres unmarked) [Compound V-7]
12 | > 7.00 | O=C1CCC(NC(=O)c2ccc(N3CCN(C[C@H]4CCCC[C@@H]4CN4CCN(c5ccc([C@@H]6c7ccc(O)cc7CC[C@@H]6c6ccccc6)cc5)CC4)CC3)cn2)C(=O)N1 (stereo partly drawn) [III-2, N-(2,6-dioxopiperidin-3-yl)-5-(4-(((1S,2S)-2-((4-(4-((1R,2S)-6-hydroxy-2-phenyl-1,2,3,4-tetrahydronaphthalen-1-yl)phenyl)piperazin-1-yl)methyl)cyclohexyl)methyl)piperazin-1-yl)pyridinecarboxamide]
13 | > 7.60 | O=C1CCC(NC(=O)c2ccc(N3CCN(C[C@@H]4CCCC[C@H]4CN4CCN(c5ccc([C@@H]6c7ccc(O)cc7CC[C@@H]6c6ccccc6)cc5)CC4)CC3)cc2F)C(=O)N1 (some centres unmarked) [Compound I-69]

The remaining lines, values behind:

Row | Compound | pIC50
14 | Cn1nc(C2CCC(=O)NC2=O)c2cc(F)c(N3CCN(C[C@@H]4CCCC[C@H]4CN4CCN(c5ccc([C@@H]6c7ccc(O)cc7CC[C@@H]6c6ccccc6)cc5)CC4)CC3)cc21 (some centres unmarked) [IV-1] | > 7.30
15 | Cn1c(=O)n(C2CCC(=O)NC2=O)c2cccc(C3CCN(C[C@@H]4CCCC[C@H]4CN4CCN(c5ccc([C@@H]6c7ccc(O)cc7CC[C@@H]6c6ccccc6)cc5)CC4)CC3)c21 (some centres unmarked) [VII-3] | > 7.00
16 | C[C@H]1CC(O)(c2cc3c(cc2F)c(N2CCC(=O)NC2=O)nn3C)CCN1C[C@@H]1CCCC[C@H]1CN1CCN(c2ccc([C@@H]3c4ccc(O)cc4CC[C@@H]3c3ccccc3)cc2)CC1 (stereo partly drawn) [VI-30, 1-(5-fluoro-6-((2S)-4-hydroxy-1-(((1R,2R)-2-((4-(4-((1R,2S)-6-hydroxy-2-phenyl-1,2,3,4-tetrahydronaphthalen-1-yl)phenyl)piperazin-1-yl)methyl)cyclohexyl)methyl)-2-methylpiperidin-4-yl)-1-methyl-1H-indazol-3-yl)dihydropyrimidine-2,4 (1H,3H)-dione] | > 7.30
17 | O=C1CCC(n2cnc3cc(C4CCN(C[C@@H]5CCCC[C@H]5CN5CCN(c6ccc([C@@H]7c8ccc(O)cc8CC[C@@H]7c7ccccc7)cc6)CC5)CC4)c(F)cc32)C(=O)N1 (some centres unmarked) [Compound V-5] | > 7.00
18 | COC1(c2cc3c(cc2F)c(N2CCC(=O)NC2=O)nn3C)CCN(C[C@@H]2CCCC[C@H]2CN2CCN(c3ccc([C@@H]4c5ccc(O)cc5CC[C@@H]4c4ccccc4)cc3)CC2)CC1 [VI-28] | > 7.60
19 | O=C1CCC(n2cnc3cc(N4CCN(C[C@@H]5CCCC[C@H]5CN5CCN(c6ccc([C@@H]7c8ccc(O)cc8CC[C@@H]7c7ccccc7)cc6)CC5)CC4)c(F)cc32)C(=O)N1 (some centres unmarked) [Compound V-2] | > 7.30
20 | C[C@@H]1CC(O)(c2cc3c(cc2F)c(N2CCC(=O)NC2=O)nn3C)CCN1C[C@@H]1CCCC[C@H]1CN1CCN(c2ccc([C@@H]3c4ccc(O)cc4CC[C@@H]3c3ccccc3)cc2)CC1 (stereo partly drawn) [VI-29, 1-(5-fluoro-6-((2R)-4-hydroxy-1-(((1R, 2R)-2-((4-(4-((1R, 2S)-6-hydroxy-2-phenyl-1,2,3,4-tetrahydronaphthalen-1-yl)phenyl)piperazin-1-yl)methyl)cyclohexyl)methyl)-2-methylpiperidin-4-yl)-1-methyl-1H-indazol-3-yl)dihydropyrimidine-2,4 (1H,3H)-dione] | > 7.60
21 | Cn1c(=O)n(C2CCC(=O)NC2=O)c2ccc(N3CCN(C[C@@H]4CCCC[C@H]4CN4CCN(c5ccc([C@@H]6c7ccc(O)cc7CC[C@@H]6c6ccccc6)cc5)CC4)CC3)cc21 (some centres unmarked) [VII-2] | > 7.00
22 | Cn1nc(N2CCC(=O)NC2=O)c2cc(F)c(C3CCN(C[C@H]4CCCC[C@@H]4CN4CCN(c5ccc([C@@H]6c7ccc(O)cc7CC[C@@H]6c6ccccc6)cc5)CC4)CC3(F)F)cc21 (stereo in doubt) [IV-12] | > 7.00
23 | O=C1CCC(NC(=O)c2ccc(C3CCN(C[C@@H]4CCCC[C@H]4CN4CCN(c5ccc([C@@H]6c7ccc(O)cc7CC[C@@H]6c6ccccc6)cc5)CC4)CC3)cc2F)C(=O)N1 (stereo partly drawn) [Compound I-67, N-(2,6-dioxopiperidin-3-yl)-2-fluoro-4-(1-(((1R,2R)-2-((4-(4-((1R,2S)-6-hydroxy-2-phenyl-1,2,3,4-tetrahydronaphthalen-1-yl)phenyl)piperazin-1-yl)methyl)cyclohexyl)methyl)piperidin-4-yl)benzamide] | > 7.00
